This passage reports IC50, AC50 and EC50 results from ChEMBL document CHEMBL1201862, “PubChem BioAssay data set” (2004).

Assay [1] addresses Beta-lactamase (Salmonella choleraesuis (strain SC-B67), UniProt Q5J463).
For assay [2], the target named is Beta-lactamase (Pseudomonas aeruginosa, UniProt Q79MP6).
Assay [3] deals with T1, Small ubiquitin-related modifier 1 (Homo sapiens, UniProt P63165). Kind of assay: inhibitors of SUMO1 peptide binding, dose response, biochemical, fluorescence polarization, uHTS hits (AID 624382). It counts as functional. The settings on record: read-out: IC50_Mean. For orientation: Polarisation of emitted light reports the rotation of a fluorescent probe.
Assay [4] deals with T1, Small ubiquitin-related modifier 1. In words: inhibitors of SUMO1 partner interactions, dose response, biochemical, FRET (AID 624383). It counts as functional. The settings on record: read-out: IC50_Mean.
In assay [5] the target is T2, Microphthalmia-associated transcription factor (Homo sapiens, UniProt O75030).
T2 sequence (O75030 whole entry): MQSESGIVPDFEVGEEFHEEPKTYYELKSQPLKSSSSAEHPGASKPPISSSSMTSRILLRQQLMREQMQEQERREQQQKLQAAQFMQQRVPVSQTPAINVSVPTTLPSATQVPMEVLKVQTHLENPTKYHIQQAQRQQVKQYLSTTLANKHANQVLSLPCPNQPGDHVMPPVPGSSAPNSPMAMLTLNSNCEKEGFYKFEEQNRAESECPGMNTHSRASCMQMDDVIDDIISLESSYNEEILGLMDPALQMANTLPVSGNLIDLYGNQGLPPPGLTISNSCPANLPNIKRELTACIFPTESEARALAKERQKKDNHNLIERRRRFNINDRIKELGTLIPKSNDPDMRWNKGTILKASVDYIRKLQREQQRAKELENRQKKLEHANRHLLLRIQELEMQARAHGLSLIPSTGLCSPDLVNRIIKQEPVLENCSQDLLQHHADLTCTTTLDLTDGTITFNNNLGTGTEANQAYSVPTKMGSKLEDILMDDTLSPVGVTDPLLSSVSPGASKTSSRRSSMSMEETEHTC
Kind of assay: TRPM1 promoter luciferase signal decrease, dose response, MITF inhibitor project, cell-based, SK-MEL-5, cherry-picked, set 3 (AID 493073).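 Further: SK-MEL-5 melanoma cells with luciferase driven by the MITF target TRPM1 promoter.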 It counts as functional.

Assay [6] in a line: Fluorescence-based cell-based high throughput dose response assay for inhibitors of the interaction of nucleotide-binding oligomerization domain containing 2 (NOD2) and the receptor-interacting serine-threonine kinase 2 (RIPK2). It counts as functional. As to conditions: Homo sapiens.
Assay [7] is described as follows: Luminescence Cell-Based Dose Retest to Confirm Inhibitors of Cancer Stem Cells. [Related pubchem assays (depositor defined):AID2717, AID2721]. It counts as functional. The settings on record: Homo sapiens.
Assay [8] addresses T3, Caspase-6 (Homo sapiens, UniProt P55212).
T3 sequence (P55212 whole entry): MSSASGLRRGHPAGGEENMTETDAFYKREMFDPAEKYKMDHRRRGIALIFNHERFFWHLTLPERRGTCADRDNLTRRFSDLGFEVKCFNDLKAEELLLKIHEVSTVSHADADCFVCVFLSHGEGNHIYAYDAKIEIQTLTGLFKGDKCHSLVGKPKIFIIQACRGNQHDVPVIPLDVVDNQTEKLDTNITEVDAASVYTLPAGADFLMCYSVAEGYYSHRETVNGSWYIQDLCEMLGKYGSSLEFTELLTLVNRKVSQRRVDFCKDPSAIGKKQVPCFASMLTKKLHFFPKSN
Kind of assay: human caspase-6 inhibitors, dose response, biochemical, VEID-R110 fluorescence, cherry-pick (AID 720632).

In assay [9] the target is Paired box protein Pax-8 (Homo sapiens, UniProt Q06710). Kind of assay: inhibitors of PAX8-driven TPO luciferase reporter, dose response, RMG-I cells, cherry-pick (AID 687027).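 Further: luciferase reporter driven by Pax8 target thyroperoxidase promoter measured by SteadyGlo luminescence.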 It counts as functional, cell-based.
Assay [10] can be described thus: HEK293T cytotoxicity, dose response, cytotoxicity control for miR-122 modulator project, cell-based, activator set, cherry-pick (AID 720690).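 Further: HEK293T human cells scored for general mammalian cytotoxicity.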 It counts as functional.
The nature of assay [11]: miR-122 activators in hepatoma reporter cells, dose response, cell-based, Huh7 psiCHECK-miR122, Renilla luciferase, cherry-picked (AID 651956).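 Further: huh7 hepatoma cells stably carrying a psiCHECK-2 miR-122 sensor plasmid; renilla luciferase signal reporting endogenous miR-122 activity after 48 h compound exposure.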 It counts as functional.
Assay [12] in a line: HEK293T cytotoxicity, dose response, cytotoxicity control for miR-122 modulator project, cell-based, inhibitor set, cherry-pick, set 2 (AID 720697). It counts as functional.
Assay [13] concerns the target T4, Low molecular weight phosphotyrosine protein phosphatase (Homo sapiens, UniProt P24666).
T4 sequence (P24666 whole entry): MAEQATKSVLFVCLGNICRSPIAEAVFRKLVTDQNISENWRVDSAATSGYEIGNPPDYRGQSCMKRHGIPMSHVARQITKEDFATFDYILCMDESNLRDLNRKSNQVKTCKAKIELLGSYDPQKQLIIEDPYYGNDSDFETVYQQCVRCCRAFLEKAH
It counts as functional. The settings on record: read-out: IC50_Mean.

Assay [14] addresses T4, Low molecular weight phosphotyrosine protein phosphatase. It counts as functional. The settings on record: read-out: IC50_Mean. The source holds these as a separate data set.
Assay [15] addresses Steroidogenic factor 1 (Homo sapiens, UniProt Q13285). In words: Counterscreen for inverse agonists of the liver receptor homolog-1 (LRH-1; NR5A2): Luminescence-based cell-based high throughput dose response assay to identify inverse agonists of the Steroidogenic Factor 1 Nuclear Receptor (SF1; NR5A1). It counts as functional. In general terms: Counterscreens check selectivity or assay interference.

Assay [16] in a line: StAR promoter reporter inhibition counter-screen, dose response, counter-screen for LRH-1 inverse agonist project, cell-based, luminescence, luciferase reporter (AID 651969). It counts as functional.
Assay [17] deals with Nuclear receptor subfamily 5 group A member 2 (Homo sapiens, UniProt O00482). It counts as functional, cell-based.
In assay [18] the target is T5, Corticotropin-releasing factor receptor 2/Corticotropin-releasing factor-binding protein (Homo sapiens, UniProt P24387+Q13324).
T5 sequence (Q13324 whole entry): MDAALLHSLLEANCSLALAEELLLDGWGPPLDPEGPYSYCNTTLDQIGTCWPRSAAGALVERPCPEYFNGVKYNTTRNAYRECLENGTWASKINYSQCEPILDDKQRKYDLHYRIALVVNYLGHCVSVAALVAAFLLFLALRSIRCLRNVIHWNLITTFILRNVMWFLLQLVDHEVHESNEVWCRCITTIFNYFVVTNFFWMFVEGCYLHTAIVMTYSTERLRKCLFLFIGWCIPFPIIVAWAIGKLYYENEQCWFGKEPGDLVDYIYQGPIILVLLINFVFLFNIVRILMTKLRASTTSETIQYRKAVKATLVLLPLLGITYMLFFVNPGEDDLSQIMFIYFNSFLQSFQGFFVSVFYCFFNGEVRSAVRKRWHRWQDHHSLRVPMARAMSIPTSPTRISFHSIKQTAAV
T5 sequence (P24387 whole entry): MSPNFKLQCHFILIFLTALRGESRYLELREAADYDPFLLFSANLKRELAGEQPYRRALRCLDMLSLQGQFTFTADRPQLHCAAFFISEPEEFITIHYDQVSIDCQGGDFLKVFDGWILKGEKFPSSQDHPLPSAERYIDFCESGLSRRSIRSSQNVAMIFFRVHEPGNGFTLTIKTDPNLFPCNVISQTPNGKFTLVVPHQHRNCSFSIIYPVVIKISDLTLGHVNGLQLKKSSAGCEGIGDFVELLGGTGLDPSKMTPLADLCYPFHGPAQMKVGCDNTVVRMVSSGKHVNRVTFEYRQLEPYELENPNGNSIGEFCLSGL
In words: Dose Response confirmation of uHTS hits for small molecule antagonists of the CRF-binding protein and CRF-R2 receptor complex. It counts as functional. The settings on record: read-out: IC50_Mean.

In assay [19] the target is Photoreceptor-specific nuclear receptor (Homo sapiens, UniProt Q9Y5X4). It counts as functional, cell-based.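 Further: CHO-S cells with Gal4-NCOR and VP16-NR2E3 two-hybrid luciferase reporter.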
Assay [20] can be described thus: CRF-BP/CRF-R2 complex antagonists, dose response, cell-based, uHTS hits, 384-well (AID 651639). It counts as functional, Homo sapiens. The settings on record: read-out: IC50_Mean.
Assay [21] has as its target T5, Corticotropin-releasing factor receptor 2/Corticotropin-releasing factor-binding protein. Kind of assay: activators of CRF receptor 2 with binding protein – uHTS hits, confirmation (AID 602473). It counts as functional. The settings on record: read-out: EC50_Mean.
Assay [22] concerns the target T6, Leucine aminopeptidase (Plasmodium falciparum 3D7, UniProt Q8IL11).
T6 sequence (Q8IL11 whole entry): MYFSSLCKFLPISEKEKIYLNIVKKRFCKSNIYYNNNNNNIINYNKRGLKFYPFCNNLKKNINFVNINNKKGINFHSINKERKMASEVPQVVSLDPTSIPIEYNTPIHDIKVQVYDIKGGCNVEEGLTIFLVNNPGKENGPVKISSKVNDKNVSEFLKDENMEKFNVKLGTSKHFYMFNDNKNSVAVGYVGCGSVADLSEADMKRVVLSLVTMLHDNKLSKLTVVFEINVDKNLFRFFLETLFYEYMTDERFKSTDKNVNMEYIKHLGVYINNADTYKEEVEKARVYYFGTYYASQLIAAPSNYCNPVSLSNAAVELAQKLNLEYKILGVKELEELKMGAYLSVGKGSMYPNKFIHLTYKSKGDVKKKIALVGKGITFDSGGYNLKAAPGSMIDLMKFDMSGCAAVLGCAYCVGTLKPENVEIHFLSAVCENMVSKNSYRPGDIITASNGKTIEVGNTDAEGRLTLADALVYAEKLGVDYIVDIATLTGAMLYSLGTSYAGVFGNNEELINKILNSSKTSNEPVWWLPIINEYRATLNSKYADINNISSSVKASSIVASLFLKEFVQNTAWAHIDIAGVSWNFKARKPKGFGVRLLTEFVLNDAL
In words: P. falciparum M17LAP inhibitors, primary screen, biochemical, fluorogenic H-Leu-NHMec substrate, 1536-well (AID 1619). It counts as functional.

A short description of assay [23]: Shn3 3'UTR reporter inhibitors, dose response, cell-based, Clone20 osteoblasts, firefly luciferase, cherry-picked (AID 624132).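 Further: firefly luciferase luminescence from reporter carrying the Shn3 3'UTR in osteoblasts.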 It counts as functional.
The nature of assay [24]: control 3'UTR Renilla luciferase suppression, dose response, counter-screen for Shn3 inhibitor project, cell-based, Clone20-Shn3RL, cherry-picked (AID 624133). It counts as functional.
The nature of assay [25]: HepG2 cell cytotoxicity, dose response, cytotoxicity control for Shn3 inhibitor project, CellTiter-Glo, cherry-picked (AID 624134). It counts as functional, cell-based.
A short description of assay [26]: Counterscreen for activators of the function of SWI/SNF related, matrix associated, actin dependent regulator of chromatin, subfamily a, member 2 (SMARCA2, BRM): Luminescence-based cell-based high throughput dose response assay to identify non-selective compounds using the VP16 reporter assay. It counts as functional.
For assay [27], the target named is SWI/SNF-related matrix-associated actin-dependent regulator of chromatin subfamily A member 2 (Homo sapiens, UniProt P51531). Kind of assay: Luminescence-based cell-based high throughput dose response assay to identify activators of the function of SWI/SNF related, matrix associated, actin dependent regulator of chromatin, subfamily a, member 2 (SMARCA2, BRM). It counts as functional.

Assay [28] concerns Vero. Kind of assay: Vero cell toxicity, dose response, cytotoxicity control, plate reader, cherry-pick samples (AID 687020). It counts as functional, cell-based. As to conditions: Chlorocebus sabaeus.

The source made the active and inactive calls. Where only a bound is given, the exact number is not on record here.

T1 sequence (P63165 whole entry): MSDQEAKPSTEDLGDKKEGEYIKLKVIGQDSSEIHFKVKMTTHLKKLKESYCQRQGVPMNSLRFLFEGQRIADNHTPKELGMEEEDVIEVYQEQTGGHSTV
Nuclear receptor subfamily 5 group A member 2, sequence (O00482 whole entry): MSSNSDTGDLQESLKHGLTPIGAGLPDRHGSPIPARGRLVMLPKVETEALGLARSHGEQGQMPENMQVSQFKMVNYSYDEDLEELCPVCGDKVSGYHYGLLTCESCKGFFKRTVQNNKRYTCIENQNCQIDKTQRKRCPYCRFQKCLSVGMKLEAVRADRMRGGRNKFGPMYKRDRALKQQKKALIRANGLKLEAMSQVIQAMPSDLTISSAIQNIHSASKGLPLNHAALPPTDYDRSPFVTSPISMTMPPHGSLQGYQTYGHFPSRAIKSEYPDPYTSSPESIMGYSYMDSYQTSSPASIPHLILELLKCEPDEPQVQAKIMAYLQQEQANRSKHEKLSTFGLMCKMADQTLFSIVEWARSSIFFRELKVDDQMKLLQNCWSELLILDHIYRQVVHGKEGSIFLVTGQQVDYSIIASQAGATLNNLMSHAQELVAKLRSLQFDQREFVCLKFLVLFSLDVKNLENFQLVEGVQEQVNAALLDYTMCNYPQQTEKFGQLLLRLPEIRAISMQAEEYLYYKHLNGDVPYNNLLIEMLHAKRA
Photoreceptor-specific nuclear receptor, sequence (Q9Y5X4 whole entry, the tested form may be a part): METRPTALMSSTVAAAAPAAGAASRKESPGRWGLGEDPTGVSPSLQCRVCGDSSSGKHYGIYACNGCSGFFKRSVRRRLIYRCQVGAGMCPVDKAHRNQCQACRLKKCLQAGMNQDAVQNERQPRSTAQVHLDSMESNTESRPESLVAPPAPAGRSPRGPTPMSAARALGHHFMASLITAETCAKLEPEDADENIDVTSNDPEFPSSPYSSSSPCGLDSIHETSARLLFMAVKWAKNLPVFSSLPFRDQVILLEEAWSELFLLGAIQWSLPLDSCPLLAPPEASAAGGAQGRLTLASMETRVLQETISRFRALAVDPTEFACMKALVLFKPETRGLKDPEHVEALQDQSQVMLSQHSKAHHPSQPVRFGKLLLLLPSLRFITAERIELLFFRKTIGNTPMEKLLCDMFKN
Steroidogenic factor 1, sequence (Q13285 whole entry): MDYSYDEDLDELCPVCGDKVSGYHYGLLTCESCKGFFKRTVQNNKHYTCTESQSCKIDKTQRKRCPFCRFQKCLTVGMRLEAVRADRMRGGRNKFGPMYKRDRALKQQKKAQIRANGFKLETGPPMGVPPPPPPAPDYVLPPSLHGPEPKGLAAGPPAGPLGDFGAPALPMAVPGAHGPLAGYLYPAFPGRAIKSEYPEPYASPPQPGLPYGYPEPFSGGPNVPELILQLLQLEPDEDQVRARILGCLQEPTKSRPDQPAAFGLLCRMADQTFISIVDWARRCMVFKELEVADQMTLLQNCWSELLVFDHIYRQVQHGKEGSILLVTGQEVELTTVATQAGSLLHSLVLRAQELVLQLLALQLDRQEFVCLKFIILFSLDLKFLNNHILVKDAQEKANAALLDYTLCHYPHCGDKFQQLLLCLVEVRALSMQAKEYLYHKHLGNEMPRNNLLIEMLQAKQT
Beta-lactamase (Salmonella choleraesuis (strain SC-B67), UniProt Q5J463), sequence (Q5J463 whole entry): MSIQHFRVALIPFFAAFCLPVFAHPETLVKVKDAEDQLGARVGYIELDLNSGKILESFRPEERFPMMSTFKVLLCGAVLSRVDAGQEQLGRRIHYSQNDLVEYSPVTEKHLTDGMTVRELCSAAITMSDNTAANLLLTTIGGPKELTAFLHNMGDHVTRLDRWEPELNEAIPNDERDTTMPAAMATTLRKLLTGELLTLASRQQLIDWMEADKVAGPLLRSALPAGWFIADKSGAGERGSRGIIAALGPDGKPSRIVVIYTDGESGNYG
Paired box protein Pax-8, sequence (Q06710 whole entry): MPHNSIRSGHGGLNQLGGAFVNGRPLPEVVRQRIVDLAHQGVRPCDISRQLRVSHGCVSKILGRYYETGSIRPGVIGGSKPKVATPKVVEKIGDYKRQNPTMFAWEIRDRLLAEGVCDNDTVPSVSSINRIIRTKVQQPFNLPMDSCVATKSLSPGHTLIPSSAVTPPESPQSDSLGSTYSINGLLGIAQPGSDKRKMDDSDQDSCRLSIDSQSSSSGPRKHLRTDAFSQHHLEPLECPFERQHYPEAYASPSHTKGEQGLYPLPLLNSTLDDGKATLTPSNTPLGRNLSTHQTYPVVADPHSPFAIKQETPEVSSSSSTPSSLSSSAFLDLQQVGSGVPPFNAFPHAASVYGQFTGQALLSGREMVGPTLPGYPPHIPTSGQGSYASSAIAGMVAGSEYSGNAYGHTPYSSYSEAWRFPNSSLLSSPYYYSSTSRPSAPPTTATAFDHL
Beta-lactamase (Pseudomonas aeruginosa, UniProt Q79MP6), sequence (Q79MP6 whole entry): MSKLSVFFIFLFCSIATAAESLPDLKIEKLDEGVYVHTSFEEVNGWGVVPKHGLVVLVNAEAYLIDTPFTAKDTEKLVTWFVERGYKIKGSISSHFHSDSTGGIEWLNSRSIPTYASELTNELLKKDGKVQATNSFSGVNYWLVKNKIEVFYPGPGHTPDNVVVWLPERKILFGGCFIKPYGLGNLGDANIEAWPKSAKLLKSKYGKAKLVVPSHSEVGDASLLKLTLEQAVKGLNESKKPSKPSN
SWI/SNF-related matrix-associated actin-dependent regulator of chromatin subfamily A member 2, sequence (P51531 whole entry): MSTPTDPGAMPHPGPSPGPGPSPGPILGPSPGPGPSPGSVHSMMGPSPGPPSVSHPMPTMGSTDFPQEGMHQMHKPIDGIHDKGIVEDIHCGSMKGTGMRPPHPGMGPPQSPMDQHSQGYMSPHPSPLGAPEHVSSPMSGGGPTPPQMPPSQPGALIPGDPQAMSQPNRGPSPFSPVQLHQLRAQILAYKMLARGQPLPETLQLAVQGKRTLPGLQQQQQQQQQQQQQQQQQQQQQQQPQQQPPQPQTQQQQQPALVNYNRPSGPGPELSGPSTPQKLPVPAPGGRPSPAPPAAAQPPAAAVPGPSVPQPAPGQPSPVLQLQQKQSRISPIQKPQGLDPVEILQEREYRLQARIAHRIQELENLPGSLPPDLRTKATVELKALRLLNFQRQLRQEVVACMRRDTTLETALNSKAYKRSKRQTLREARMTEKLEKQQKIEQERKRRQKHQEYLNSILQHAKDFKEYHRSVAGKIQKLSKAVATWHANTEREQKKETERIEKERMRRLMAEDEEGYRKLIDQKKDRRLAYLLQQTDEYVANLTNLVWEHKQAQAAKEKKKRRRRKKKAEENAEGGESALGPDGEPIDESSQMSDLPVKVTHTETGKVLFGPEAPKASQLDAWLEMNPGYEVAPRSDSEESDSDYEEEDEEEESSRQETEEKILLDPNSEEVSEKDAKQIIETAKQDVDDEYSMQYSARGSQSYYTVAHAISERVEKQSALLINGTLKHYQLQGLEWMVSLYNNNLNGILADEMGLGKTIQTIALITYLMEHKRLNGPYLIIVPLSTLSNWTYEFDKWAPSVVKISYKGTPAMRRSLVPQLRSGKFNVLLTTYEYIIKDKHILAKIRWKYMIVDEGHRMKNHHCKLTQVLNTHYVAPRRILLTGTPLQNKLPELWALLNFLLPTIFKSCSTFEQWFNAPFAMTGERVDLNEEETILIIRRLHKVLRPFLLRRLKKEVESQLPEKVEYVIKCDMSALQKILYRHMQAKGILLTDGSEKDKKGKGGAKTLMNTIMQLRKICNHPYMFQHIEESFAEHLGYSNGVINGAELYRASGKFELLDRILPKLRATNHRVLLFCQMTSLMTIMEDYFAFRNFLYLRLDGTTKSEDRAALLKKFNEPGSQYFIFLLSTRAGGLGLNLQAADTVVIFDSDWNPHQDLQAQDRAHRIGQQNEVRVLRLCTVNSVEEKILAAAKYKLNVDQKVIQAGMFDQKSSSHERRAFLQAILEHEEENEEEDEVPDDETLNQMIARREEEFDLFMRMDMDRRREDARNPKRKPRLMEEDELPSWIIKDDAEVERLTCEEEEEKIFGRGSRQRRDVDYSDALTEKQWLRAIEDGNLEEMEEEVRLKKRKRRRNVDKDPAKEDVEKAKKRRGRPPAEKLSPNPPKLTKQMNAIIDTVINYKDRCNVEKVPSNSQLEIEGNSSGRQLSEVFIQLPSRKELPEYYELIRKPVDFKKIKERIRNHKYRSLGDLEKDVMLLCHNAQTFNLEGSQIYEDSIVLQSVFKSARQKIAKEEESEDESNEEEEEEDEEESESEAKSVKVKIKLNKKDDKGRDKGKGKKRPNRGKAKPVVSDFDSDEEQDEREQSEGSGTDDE

Turning to `COc1ccccc1-c1csc(-n2ncc(C#N)c2N)n1`, the IC50 in assay [1] was > 59.6 µM (inactive); in [2], > 59.6 µM (inactive); in assay [3] it was > 66.6 µM (inactive); in assay [4], 6.71 µM (active).
Usually AC50 stands for the concentration at which the activity in the assay is half-maximal. `Cc1ccc(NC(=O)CN(C)C(=O)Cn2ncc(Cl)c(Cl)c2=O)cc1`: the half-maximal activity concentration (AC50) in assay [5] is 9.16 µM (active); in [7] it was 4.54 µM (active); in assay [8], 5.9 µM (active); in assay [9] it was 3.57 µM (active); in [10] it was 3.57 µM (active); in assay [11] it was 4.2 µM (active). Moreover, the AC50 in assay [12] was 8.04 µM (active). Also, the IC50 in assay [6] is 4.34 µM (active).
Regarding `O=C(CN1CCN(c2ccccc2F)CC1)c1ccc2cc[nH]c2c1`, the IC50 in assay [13] was 5.49 µM (active); in [14] it was 14.6 µM (active).
As to `C/C(=N\Nc1cc(C(F)(F)F)ccc1Cl)c1ccncc1`, the values for the IC50 in assay [15], in assay [16] and in assay [17] were 12 µM (inactive), 35.9 µM (inactive) and 26.2 µM (inactive), respectively.
`Cc1ccc(S(=O)(=O)N(CC(=O)Nc2ccccc2C(=O)O)c2cccc(Cl)c2C)cc1`: the IC50 in assay [18] is 41.1 µM (active); in [19], 2.15 µM (active); in assay [20], 15.6 µM (active); in assay [22], 24.7 µM (active). Also, the EC50 in assay [21] was 41.2 µM (active).
Consider `CC(C)(C)NCC(=Cc1ccccc1)C(=O)c1ccccc1`, for which the IC50 is 10.4 µM (inactive) in assay [6] and 2.91 µM (active) in assay [19]. The results for the AC50 in assay [23], in assay [24] and in assay [25] were 4.51 µM (active), 6.44 µM (active) and 11.1 µM (active), respectively.
With `OCC1OC(n2cnc3c(SCc4ccccc4)ncnc32)C(O)C1O` (stereo unspecified), the EC50 in [26] and in [27] was > 91.3 µM (inactive) in each case.
Consider `CC(C)c1ccc(Nc2ncc3c(n2)CCN(C(=O)Nc2ccc(F)c(Cl)c2)C3)cc1`, for which the AC50 in assay [28] is 21 µM (active).
With `Cc1cc(=O)oc2c(C)c(OCC(=O)NC3CC(C)(C)NC(C)(C)C3)ccc12`, the IC50 in [15], in assay [16] and in assay [17] was 35.9 µM (inactive) in each case.
With `Cc1cc(Cl)c2oc(C(=O)N(C)CCCCN3CCOCC3)c(C)c2c1`, the AC50 in [28] is 30.2 µM (active).
As for `O=C(N/N=C/c1ccc(OC(=O)c2cccc(F)c2)cc1)c1cccnc1`, the IC50 is 14.4 µM (active) in assay [13] and 15.4 µM (active) in assay [14].
